Test results published in US6638957B1, “Use of compounds with a nitrogen-oxygen heterocycle” (Jomaa Pharmaka GmbH, priority 1999, dated 2003).
≈ marks a conversion by molar mass, not a printed value.

What was measured:
[1] = test system: Reis; assay: herbicidal activity, Hydro Vorauflauf; format: in vivo; settings: 4000 Gramm/Hektar
Description: (§1) The determination of herbicidal activity is performed according to standard procedure. Again the compounds listed on page 9 are tested.

[2] = test system: Echinochloa; assay: herbicidal activity, Hydro Vorauflauf; format: in vivo; settings: 4000 Gramm/Hektar
Description: as §1

[3] = test system: Lepidium; assay: herbicidal activity, Hydro Vorauflauf; format: in vivo; settings: 4000 Gramm/Hektar
Description: as §1

[4] = test system: Solanum; assay: herbicidal activity, Hydro Vorauflauf; format: in vivo; settings: 4000 Gramm/Hektar
Description: as §1

[5] = target: T1, DOXP reductoisomerase of Escherichia coli (UniProt P56139); assay: inhibition of recombinant DOXP reductoisomerase (NADPH oxidation); format: biochemical; settings: 1 mM DOXP, 0,3 mM NADPH, pH 7,5; read-out: IC50(nM) of DOXP reductoisomerase from Helicobacter pilori
T1 sequence (P56139 1-368): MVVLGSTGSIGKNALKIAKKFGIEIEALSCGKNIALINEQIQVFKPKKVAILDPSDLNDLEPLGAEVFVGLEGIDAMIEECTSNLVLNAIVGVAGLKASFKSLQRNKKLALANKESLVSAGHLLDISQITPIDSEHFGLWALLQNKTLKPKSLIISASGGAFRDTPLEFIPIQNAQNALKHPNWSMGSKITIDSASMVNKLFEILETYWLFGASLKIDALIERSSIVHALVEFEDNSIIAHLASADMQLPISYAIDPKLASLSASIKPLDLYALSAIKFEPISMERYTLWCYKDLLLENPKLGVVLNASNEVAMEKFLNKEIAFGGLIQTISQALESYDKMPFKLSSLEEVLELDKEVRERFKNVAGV

[6] = test system: Plasmodium falciparum; assay: antimalaria activity on in vitro cultures, [3H]-hypoxanthine incorporation; format: cell-based; settings: 72 h, inhibition of [3H]-hypoxanthine incorporation, 48 + 24 hours, read-out: IC50(nM) of malaria culture (Plasmodium falciparum)
Description: The antimalaria activity of the compounds listed on page 9 was determined on in vitro cultures of the malaria pathogen Plasmodium falciparum. The depressions of a 96-well microtitre plate were charged with in each case 200 μl of an asynchroneous Plasmodium falciparum culture at a parasitaemia of 0,4% and haematokrit of 2%. A serial dilution series of the compounds in triple steps between concentrations of 100 to 0,14 μmol 1^−1 was then prepared. The plates were incubated at 37° C., 3% CO2 and 5% O2 over a period of 48 hours. 30 μl medium supplemented with 27 μCi ml^−1 [^3H]-hypoxanthine were then added to each well. After incubation for 24 hours the parasites were harvested by filtration on a glass fibre filter and the radioactivity which had been incorporated was measured. The inhibition of the growth of parasites was measured as the percentage inhibition of the incorporation of tritium. Inhibition of the growth of the parasites has been determined as percentage inhibition of incorporation of tritium based on a comparison without the substance. The half-maximum inhibitory concentration (IC50) of the substance was determined by extrapolation of the values.

[7] = test system: Pseudomonas aeruginosa; assay: antibacterial activity, minimum inhibition concentration in liquid culture; format: cell-based; settings: read-out: MIC(nM) of bacteria culture (Pseudomonas aeruginosa)
Description: A dilution series comprising the concentrations 500, 100, 50, 10 and 0 μmol 1^−1 of the individual compounds in LB medium is introduced into 5 culture microtubes in a volume of 0,5 ml. The tubes were inoculated with 10 μl of an overnight culture of E. coli K12 and shaken overnight at 37° C. The growth of the bacteria was assessed on the basis of the turbidity of the medium. The minimum concentration causing inhibition of bacterial growth was determined (minimum inhibition concentration MIC)
The antibacterial activity of P. aeruginosa was determined in the same manner.

[8] = test system: Abutilon theophrasti; assay: herbicidal activity, Erde Vorauflauf; format: in vivo; settings: 2000 Gramm/Hektar
Description: as §1

[9] = test system: Galium aperine; assay: herbicidal activity, Erde Vorauflauf; format: in vivo; settings: 2000 Gramm/Hektar
Description: as §1

[10] = test system: Cyperus esculentus; assay: herbicidal activity, Erde Vorauflauf; format: in vivo; settings: 2000 Gramm/Hektar
Description: as §1

[11] = test system: Zea mays; assay: herbicidal activity, Erde Vorauflauf; format: in vivo; settings: 2000 Gramm/Hektar
Description: as §1

[12] = test system: Avena fatua; assay: herbicidal activity, Erde Vorauflauf; format: in vivo; settings: 2000 Gramm/Hektar
Description: as §1

[13] = test system: Setaria viridis; assay: herbicidal activity, Erde Vorauflauf; format: in vivo; settings: 2000 Gramm/Hektar
Description: as §1

[14] = test system: Amaranthus retroflexus; assay: herbicidal activity, Erde Vorauflauf; format: in vivo; settings: 2000 Gramm/Hektar
Description: as §1

[15] = test system: Xanthium strumarium; assay: herbicidal activity, Erde Vorauflauf; format: in vivo; settings: 2000 Gramm/Hektar
Description: as §1

[16] = test system: Beta vulgaris; assay: herbicidal activity, Erde Vorauflauf; format: in vivo; settings: 2000 Gramm/Hektar
Description: as §1

[17] = test system: Alopecurus myosuroides; assay: herbicidal activity, Erde Vorauflauf; format: in vivo; settings: 2000 Gramm/Hektar
Description: as §1

[18] = test system: Sinapis arvensis; assay: herbicidal activity, Erde Vorauflauf; format: in vivo; settings: Mutarda arvensis; 2000 Gramm/Hektar
Description: as §1

[19] = test system: Abutilon theophrasti; assay: herbicidal activity, Erde Nachauflauf; format: in vivo; settings: 2000 Gramm/Hektar
Description: as §1

[20] = test system: Galium aperine; assay: herbicidal activity, Erde Nachauflauf; format: in vivo; settings: 2000 Gramm/Hektar
Description: as §1

[21] = test system: Cyperus esculentus; assay: herbicidal activity, Erde Nachauflauf; format: in vivo; settings: 2000 Gramm/Hektar
Description: as §1

[22] = test system: Zea mays; assay: herbicidal activity, Erde Nachauflauf; format: in vivo; settings: 2000 Gramm/Hektar
Description: as §1

[23] = test system: Avena fatua; assay: herbicidal activity, Erde Nachauflauf; format: in vivo; settings: 2000 Gramm/Hektar
Description: as §1

[24] = test system: Setaria viridis; assay: herbicidal activity, Erde Nachauflauf; format: in vivo; settings: 2000 Gramm/Hektar
Description: as §1

[25] = test system: Amaranthus retroflexus; assay: herbicidal activity, Erde Nachauflauf; format: in vivo; settings: 2000 Gramm/Hektar
Description: as §1

[26] = test system: Xanthium strumarium; assay: herbicidal activity, Erde Nachauflauf; format: in vivo; settings: 2000 Gramm/Hektar
Description: as §1

[27] = test system: Beta vulgaris; assay: herbicidal activity, Erde Nachauflauf; format: in vivo; settings: 2000 Gramm/Hektar
Description: as §1

[28] = test system: Alopecurus myosuroides; assay: herbicidal activity, Erde Nachauflauf; format: in vivo; settings: 2000 Gramm/Hektar
Description: as §1

[29] = test system: Sinapis arvensis; assay: herbicidal activity, Erde Nachauflauf; format: in vivo; settings: Mutarda arvensis; 2000 Gramm/Hektar
Description: as §1

## CC1CON(COCP(C)(=O)O)C1=O (centres unmarked) [Compound 3]
[1]
  pest or weed control at 4000 g/ha: 40%
[2]
  pest or weed control at 4000 g/ha: 40%
[3]
  pest or weed control at 4000 g/ha: 30%
[4]
  pest or weed control at 4000 g/ha: 0%
[5]
  IC50: 125 nM
[6]
  IC50: 1700 nM
[7]
  MIC: 2200 nM (≈ 0.491 µg/mL)
[8]
  pest or weed control at 2000 g/ha: 0%
[9]
  pest or weed control at 2000 g/ha: 0%
[10]
  pest or weed control at 2000 g/ha: 0%
[11]
  plant injury at 2000 g/ha: 0%
[12]
  pest or weed control at 2000 g/ha: 0%
[13]
  pest or weed control at 2000 g/ha: 0%
[14]
  pest or weed control at 2000 g/ha: 0%
[15]
  pest or weed control at 2000 g/ha: 0%
[16]
  plant injury at 2000 g/ha: 30%
[17]
  pest or weed control at 2000 g/ha: 60%
[18]
  pest or weed control at 2000 g/ha: 30%
[19]
  pest or weed control at 2000 g/ha: 60%
[20]
  pest or weed control at 2000 g/ha: 40%
[21]
  pest or weed control at 2000 g/ha: 0%
[22]
  plant injury at 2000 g/ha: 70%
[23]
  pest or weed control at 2000 g/ha: 50%
[24]
  pest or weed control at 2000 g/ha: 70%
[25]
  pest or weed control at 2000 g/ha: 60%
[26]
  pest or weed control at 2000 g/ha: 60%
[27]
  plant injury at 2000 g/ha: 90%
[28]
  pest or weed control at 2000 g/ha: 60%
[29]
  pest or weed control at 2000 g/ha: 70%
